Source: patent US11896600B2, “Composition and method of using eicosanoyl-5-hydroxytryptamide for treating neurodegenerative disorders” (Vidya Herbs, Inc., priority 2019, dated 2024)
Where a name gives a salt, the structure may show the parent alone.

Test system: scopolamine-induced amnesia in mice
Assay: Elevated plus maze (transfer latency) in scopolamine-induced amnesia mice
Conditions: donepezil hydrochloride 3 mg/kg p.o., 7-day pre-treatment; p<0.001
Experimental: Groups III-V mice were dosed every 24 h interval with respective drugs for 7 consecutive days. On day 7, amnesia was induced in all the groups except the control group by intraperitoneal injection of scopolamine (1 mg/kg) 30 minutes after the respective treatments. 30 minutes later, elevated plus maze (EPM) was carried out to assess the cognitive function. At the end of experiment, mice were sacrificed; serum and brain homogenates were used for further analysis.
Briefly, the acquisition trail (day 6) was carried out by placing the mouse at the end of an open arm. The time taken by the mouse to enter any of the closed arms was taken as transfer latency. Cutoff time allotted for each mouse was 180 s. Retention trail was carried out 24 h after the first trail (Day 7, 30 min after scopolamine treatment). The transfer latency was determined in a similar manner as mentioned before. Shortened transfer latency was considered as an index of memory improvement.
In this study, EPM was applied as a behavioral model to assess learning and memory.

COc1cc2c(cc1OC)C(=O)C(CC1CCN(Cc3ccccc3)CC1)C2 (stereo not shown) [donepezil, donepezil hydrochloride]
reduction of latency period (transfer latency) compared to scopolamine control group: 82.45%
